Measured values: ChEMBL document CHEMBL5465560, “Selectivity Literature for EUbOPEN Chemogenomic Library” (2024)
Each block holds one compound with its values, some of them ahead of it.

Legend:
[1] = molecular target: T1, Cyclin-dependent kinase-like 2 (Homo sapiens) (UniProt Q92772); experiment: Selectivity interaction (KinomeScan (DiscoverX)) EUB0001049a CDKL2; details: at 1 µM
T1 sequence (whole entry): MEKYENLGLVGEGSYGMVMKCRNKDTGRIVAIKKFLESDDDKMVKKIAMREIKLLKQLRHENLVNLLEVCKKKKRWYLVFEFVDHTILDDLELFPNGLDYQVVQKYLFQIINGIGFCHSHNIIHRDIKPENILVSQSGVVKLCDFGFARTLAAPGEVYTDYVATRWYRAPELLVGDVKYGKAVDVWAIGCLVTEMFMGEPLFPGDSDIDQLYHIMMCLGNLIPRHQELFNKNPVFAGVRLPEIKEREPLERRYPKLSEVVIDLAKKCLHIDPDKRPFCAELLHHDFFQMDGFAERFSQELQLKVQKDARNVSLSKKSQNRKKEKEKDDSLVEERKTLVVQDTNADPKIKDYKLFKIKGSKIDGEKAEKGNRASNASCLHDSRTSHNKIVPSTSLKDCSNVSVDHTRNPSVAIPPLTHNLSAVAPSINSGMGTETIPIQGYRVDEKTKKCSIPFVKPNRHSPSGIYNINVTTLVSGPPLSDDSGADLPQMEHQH

[2] = molecular target: Mitogen-activated protein kinase kinase kinase kinase 1 (Homo sapiens) (UniProt Q92918); experiment: Selectivity interaction (Ambit KINOMEscan and KiNATiv profiling in Jurkat cells) EUB0000090b MAP4K1; type: cell-based; details: at 1 µM
Mitogen-activated protein kinase kinase kinase kinase 1 (Homo sapiens), sequence (Q92918 whole entry, looked up): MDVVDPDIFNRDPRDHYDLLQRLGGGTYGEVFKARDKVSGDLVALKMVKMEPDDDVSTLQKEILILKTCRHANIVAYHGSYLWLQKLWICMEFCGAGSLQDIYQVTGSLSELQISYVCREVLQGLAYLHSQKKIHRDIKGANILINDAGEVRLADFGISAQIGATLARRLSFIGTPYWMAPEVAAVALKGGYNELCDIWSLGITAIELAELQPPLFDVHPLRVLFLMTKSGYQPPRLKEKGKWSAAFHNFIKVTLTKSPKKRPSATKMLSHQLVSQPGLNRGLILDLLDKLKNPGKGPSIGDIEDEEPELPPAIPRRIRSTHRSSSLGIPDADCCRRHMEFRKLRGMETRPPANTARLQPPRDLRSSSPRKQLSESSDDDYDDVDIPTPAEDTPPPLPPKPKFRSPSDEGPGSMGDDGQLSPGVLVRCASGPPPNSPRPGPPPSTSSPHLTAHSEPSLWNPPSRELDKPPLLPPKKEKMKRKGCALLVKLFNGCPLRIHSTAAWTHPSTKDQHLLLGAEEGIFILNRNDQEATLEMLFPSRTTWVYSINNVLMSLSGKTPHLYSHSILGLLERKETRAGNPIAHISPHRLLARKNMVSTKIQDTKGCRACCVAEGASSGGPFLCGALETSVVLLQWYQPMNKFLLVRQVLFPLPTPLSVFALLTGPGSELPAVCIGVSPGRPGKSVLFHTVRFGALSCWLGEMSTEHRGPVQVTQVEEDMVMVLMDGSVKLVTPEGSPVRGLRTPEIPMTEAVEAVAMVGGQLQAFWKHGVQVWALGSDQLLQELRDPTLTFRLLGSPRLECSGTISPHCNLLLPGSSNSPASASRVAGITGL

[3] = molecular target: Tyrosine-protein kinase Fes/Fps (Homo sapiens) (UniProt P07332); experiment: Selectivity interaction (Kinase panel (Invitrogen)) EUB0000639a FES; details: at 200 nM
Tyrosine-protein kinase Fes/Fps (Homo sapiens), sequence (P07332 whole entry): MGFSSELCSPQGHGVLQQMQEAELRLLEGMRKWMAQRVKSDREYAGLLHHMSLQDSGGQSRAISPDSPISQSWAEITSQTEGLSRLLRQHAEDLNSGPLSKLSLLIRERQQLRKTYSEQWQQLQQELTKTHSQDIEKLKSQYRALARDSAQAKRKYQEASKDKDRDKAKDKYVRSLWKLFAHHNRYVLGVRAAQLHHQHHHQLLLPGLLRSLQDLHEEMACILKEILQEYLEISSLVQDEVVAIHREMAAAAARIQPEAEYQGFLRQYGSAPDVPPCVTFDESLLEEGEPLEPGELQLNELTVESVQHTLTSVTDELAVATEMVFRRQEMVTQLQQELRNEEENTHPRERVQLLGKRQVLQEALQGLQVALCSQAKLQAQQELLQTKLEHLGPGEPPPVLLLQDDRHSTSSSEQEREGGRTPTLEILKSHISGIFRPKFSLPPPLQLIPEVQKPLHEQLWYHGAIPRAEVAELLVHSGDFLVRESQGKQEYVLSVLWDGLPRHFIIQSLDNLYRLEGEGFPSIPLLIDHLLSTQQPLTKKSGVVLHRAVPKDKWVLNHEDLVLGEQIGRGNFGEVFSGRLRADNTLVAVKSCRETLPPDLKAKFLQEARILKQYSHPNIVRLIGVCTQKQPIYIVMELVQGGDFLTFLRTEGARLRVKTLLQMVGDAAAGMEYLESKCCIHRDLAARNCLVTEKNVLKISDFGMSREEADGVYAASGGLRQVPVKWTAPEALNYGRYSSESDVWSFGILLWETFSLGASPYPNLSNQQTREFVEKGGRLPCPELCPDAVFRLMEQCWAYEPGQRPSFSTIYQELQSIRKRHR

[4] = molecular target: T2, Rhodopsin kinase GRK7 (Homo sapiens) (UniProt Q8WTQ7); experiment: Selectivity interaction (KinomeScan (DiscoverX)) EUB0000695a GRK7; details: at 100 nM
T2 sequence (whole entry): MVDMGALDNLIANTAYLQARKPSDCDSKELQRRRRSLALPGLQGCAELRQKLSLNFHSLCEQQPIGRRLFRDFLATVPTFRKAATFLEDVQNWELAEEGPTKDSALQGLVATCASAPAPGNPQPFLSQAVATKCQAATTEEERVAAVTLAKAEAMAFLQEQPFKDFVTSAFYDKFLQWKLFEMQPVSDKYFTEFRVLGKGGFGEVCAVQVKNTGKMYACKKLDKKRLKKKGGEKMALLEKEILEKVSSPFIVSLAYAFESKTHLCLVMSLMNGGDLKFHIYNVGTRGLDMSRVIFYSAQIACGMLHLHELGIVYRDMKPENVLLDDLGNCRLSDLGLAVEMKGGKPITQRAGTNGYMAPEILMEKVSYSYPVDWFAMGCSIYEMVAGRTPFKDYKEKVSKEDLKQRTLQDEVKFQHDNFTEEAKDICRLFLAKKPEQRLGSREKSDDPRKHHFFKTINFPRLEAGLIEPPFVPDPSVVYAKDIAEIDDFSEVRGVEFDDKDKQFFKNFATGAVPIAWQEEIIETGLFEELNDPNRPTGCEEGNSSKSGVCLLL

[5] = tested on: Leucine-rich repeat serine/threonine-protein kinase 2 (Homo sapiens), Q5S007 [G2019S]; experiment: (§1) Selectivity interaction (KinomeScan (DiscoverX)) EUB0000695a LRRK2; details: at 100 nM
[6] = molecular target: Leucine-rich repeat serine/threonine-protein kinase 2 (Homo sapiens, UniProt Q5S007); experiment: as §1; details: at 100 nM
[7] = molecular target: Serine/threonine-protein kinase B-raf (Homo sapiens) (UniProt P15056); experiment: (§2) Selectivity interaction (KinomeScan (DiscoverX)) EUB0001079a BRAF; details: at 1 µM
Serine/threonine-protein kinase B-raf (Homo sapiens), sequence (P15056 whole entry): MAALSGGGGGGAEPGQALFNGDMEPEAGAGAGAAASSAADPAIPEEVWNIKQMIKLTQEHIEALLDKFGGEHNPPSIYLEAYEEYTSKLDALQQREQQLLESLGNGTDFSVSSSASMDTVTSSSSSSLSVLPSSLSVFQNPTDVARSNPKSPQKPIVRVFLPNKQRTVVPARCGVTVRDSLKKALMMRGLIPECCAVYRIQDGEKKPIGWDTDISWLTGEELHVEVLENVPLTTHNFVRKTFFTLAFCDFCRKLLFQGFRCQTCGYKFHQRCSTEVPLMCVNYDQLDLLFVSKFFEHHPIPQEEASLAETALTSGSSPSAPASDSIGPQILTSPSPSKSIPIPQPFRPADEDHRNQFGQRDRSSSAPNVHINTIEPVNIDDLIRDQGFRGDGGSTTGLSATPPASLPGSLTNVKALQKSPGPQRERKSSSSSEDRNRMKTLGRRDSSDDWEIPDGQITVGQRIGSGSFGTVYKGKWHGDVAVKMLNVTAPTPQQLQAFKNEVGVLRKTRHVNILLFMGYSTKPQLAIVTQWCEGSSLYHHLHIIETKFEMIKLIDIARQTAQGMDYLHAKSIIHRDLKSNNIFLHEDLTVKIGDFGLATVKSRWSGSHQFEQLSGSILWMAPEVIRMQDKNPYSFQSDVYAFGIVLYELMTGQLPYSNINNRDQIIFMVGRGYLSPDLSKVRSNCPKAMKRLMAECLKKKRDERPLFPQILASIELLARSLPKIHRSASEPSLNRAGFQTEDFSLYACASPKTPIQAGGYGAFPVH

[8] = tested on: Serine/threonine-protein kinase B-raf (Homo sapiens), P15056 [V600E]; experiment: as §2; details: at 1 µM
Serine/threonine-protein kinase B-raf (Homo sapiens), P15056 [V600E], sequence (P15056 whole entry V600E): as the sequence (P15056 whole entry) above, with V600E counted along it

[9] = molecular target: Mitogen-activated protein kinase 7 (Homo sapiens) (UniProt Q13164); experiment: Selectivity interaction (ProQinase) EUB0000171b MAPK7
Mitogen-activated protein kinase 7 (Homo sapiens), sequence (Q13164 2-816 limits assumed): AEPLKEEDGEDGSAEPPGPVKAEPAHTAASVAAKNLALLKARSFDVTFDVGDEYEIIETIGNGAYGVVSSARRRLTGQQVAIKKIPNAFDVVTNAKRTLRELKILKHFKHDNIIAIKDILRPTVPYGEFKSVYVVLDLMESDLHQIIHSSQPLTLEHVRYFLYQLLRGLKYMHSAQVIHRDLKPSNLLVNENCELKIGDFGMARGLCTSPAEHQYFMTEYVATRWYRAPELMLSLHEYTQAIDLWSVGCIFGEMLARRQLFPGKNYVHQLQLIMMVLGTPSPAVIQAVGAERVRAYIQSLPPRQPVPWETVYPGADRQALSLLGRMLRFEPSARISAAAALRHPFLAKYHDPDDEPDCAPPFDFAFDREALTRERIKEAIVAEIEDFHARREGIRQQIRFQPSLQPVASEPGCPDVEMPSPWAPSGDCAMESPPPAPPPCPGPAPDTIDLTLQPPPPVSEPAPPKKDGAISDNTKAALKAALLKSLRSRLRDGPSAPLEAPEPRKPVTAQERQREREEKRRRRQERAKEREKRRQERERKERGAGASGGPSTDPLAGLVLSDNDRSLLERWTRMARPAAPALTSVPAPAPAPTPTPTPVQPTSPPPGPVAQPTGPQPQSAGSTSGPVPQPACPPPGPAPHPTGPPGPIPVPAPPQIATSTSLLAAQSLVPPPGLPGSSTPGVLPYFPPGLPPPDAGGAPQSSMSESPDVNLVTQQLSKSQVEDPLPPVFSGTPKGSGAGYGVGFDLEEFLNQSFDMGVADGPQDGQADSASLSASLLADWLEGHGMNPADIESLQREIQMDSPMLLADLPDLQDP

[10] = molecular target: Nuclear body protein SP140-like protein (Homo sapiens) (UniProt Q9H930); experiment: Selectivity interaction (Human bromodomain panel (DSF assay)) EUB0000233b SP140L
Nuclear body protein SP140-like protein (Homo sapiens), sequence (Q9H930 whole entry): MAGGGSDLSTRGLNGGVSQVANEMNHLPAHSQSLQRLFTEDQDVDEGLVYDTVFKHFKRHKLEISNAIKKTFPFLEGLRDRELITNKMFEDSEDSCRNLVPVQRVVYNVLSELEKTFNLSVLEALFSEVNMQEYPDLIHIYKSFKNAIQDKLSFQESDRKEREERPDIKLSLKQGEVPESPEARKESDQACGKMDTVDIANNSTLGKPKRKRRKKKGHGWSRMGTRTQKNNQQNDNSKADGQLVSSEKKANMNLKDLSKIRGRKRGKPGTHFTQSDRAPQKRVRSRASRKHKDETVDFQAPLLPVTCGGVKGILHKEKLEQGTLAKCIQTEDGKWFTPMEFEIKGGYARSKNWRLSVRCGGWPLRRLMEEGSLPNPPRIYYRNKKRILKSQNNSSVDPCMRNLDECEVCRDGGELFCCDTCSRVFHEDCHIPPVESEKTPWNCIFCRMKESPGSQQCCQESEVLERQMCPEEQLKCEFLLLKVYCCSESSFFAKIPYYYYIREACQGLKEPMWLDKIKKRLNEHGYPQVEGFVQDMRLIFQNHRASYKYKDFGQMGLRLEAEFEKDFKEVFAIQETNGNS

[11] = molecular target: T3, Dual specificity mitogen-activated protein kinase kinase 5 (Homo sapiens) (UniProt Q13163); experiment: Selectivity interaction (KinomeScan (DiscoverX)) EUB0000655a MAP2K5; details: at 10 µM
T3 sequence (whole entry): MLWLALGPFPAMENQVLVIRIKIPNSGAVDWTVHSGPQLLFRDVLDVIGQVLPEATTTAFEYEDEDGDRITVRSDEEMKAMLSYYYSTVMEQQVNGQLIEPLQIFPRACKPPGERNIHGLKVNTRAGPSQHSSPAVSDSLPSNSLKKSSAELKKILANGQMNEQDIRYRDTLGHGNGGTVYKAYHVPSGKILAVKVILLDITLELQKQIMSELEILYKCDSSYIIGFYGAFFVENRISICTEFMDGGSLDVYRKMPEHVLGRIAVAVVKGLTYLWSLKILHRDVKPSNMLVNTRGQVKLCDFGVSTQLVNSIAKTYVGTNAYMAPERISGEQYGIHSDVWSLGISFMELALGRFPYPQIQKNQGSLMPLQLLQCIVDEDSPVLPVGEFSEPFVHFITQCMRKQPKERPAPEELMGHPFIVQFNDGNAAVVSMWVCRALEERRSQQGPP

[12] = molecular target: Mitogen-activated protein kinase 4 (Homo sapiens) (UniProt P31152); experiment: Selectivity interaction (KinomeScan (DiscoverX)) EUB0001619a MAPK4; details: at 1 µM
Mitogen-activated protein kinase 4 (Homo sapiens), sequence (P31152 whole entry): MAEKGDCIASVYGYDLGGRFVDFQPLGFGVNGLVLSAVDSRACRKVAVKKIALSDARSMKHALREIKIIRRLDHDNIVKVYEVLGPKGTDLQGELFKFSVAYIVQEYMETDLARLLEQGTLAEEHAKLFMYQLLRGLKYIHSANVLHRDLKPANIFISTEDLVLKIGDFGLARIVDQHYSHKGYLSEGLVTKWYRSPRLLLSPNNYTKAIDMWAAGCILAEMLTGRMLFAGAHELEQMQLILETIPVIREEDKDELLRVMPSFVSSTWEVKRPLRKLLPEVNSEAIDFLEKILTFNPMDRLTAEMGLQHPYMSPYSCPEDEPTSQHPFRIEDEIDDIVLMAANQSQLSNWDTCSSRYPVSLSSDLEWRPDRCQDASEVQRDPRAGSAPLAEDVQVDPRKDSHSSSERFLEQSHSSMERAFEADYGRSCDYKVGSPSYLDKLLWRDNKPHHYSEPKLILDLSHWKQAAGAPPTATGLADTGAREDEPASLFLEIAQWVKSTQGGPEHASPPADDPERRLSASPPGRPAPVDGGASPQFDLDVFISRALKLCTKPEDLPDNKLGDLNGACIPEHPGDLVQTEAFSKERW

[13] = molecular target: T4, Phosphatidylinositol 5-phosphate 4-kinase type-2 beta (Homo sapiens) (UniProt P78356); experiment: Selectivity interaction (KinomeScan (DiscoverX)) EUB0000618a PIP4K2B; details: at 10 µM
T4 sequence (whole entry): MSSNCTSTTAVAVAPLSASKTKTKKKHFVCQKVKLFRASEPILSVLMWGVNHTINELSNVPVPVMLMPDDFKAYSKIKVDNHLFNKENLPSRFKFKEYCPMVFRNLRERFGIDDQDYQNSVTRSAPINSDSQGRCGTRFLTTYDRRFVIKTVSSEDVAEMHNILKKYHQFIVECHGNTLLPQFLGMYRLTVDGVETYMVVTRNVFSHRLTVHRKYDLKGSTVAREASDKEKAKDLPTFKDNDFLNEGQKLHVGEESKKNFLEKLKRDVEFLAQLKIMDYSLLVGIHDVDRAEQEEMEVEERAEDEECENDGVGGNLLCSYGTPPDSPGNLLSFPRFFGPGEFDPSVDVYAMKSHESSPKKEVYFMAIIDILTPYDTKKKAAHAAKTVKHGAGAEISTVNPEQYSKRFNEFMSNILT

[14] = molecular target: Phosphorylase b kinase gamma catalytic chain, skeletal muscle/heart isoform (Homo sapiens) (UniProt Q16816); experiment: Selectivity interaction (KinomeScan (DiscoverX)) EUB0000666a PHKG1; details: at 10 µM
Phosphorylase b kinase gamma catalytic chain, skeletal muscle/heart isoform (Homo sapiens), sequence (Q16816 whole entry, looked up, canonical isoform): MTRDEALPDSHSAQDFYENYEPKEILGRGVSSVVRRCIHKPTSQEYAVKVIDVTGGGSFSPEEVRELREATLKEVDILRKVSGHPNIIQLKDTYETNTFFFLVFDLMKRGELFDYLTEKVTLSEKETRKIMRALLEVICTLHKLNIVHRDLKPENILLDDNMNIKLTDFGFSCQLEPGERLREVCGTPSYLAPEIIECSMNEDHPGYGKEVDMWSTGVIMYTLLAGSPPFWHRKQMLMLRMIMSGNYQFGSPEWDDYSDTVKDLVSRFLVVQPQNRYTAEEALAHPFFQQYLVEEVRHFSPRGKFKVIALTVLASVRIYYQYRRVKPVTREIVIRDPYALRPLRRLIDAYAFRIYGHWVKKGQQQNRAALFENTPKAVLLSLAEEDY

SMILES: COc1cc(Nc2nc(C)cc(-c3cnn4nc(OC)ccc34)n2)cc(C(F)(F)F)c1
- % of control [1]: 100%

SMILES: CN(C)C/C=C/C(=O)Nc1ccc(C(=O)N2CCCC(Nc3ncc(Cl)c(-c4c[nH]c5ccccc45)n3)C2)cc1 (stereo not given)
- % of control [2]: 80%

- % of inhibition [3]: 1.51%
SMILES: CC[C@@H]1[C@H](F)C(=O)N[C@@H]1COc1nccc2cc(C(N)=O)c(OC)cc12 [ZIMLOVISERTIB]

SMILES: Cc1cc(F)c(C(=O)Nc2cccc(-c3nncn3C(C)C)n2)cc1-n1cnc(C2CC2)c1
- % of control [4]: 97%
- % of control [5]: 39%
- % of control [6]: 18%

SMILES: Nc1cnc(N2CCc3cc(S(=O)(=O)Nc4c(F)cc(Cl)cc4F)cc(N4CCCC4=O)c32)nc1 [TP-020n]
- % of control [7]: 98%
- % of control [8]: 100%

- % of control ([9]; at 1 µM): 83%
- % of control ([9]; at 5 µM): 73%
SMILES: C=CC(=O)Nc1cccc(C(=O)Nc2ccc(Nc3cc(-c4[nH]c(SC)nc4C)ccn3)cc2)c1

- dTM [10]: < 2 K
SMILES: CN(C)CCCOc1ccc(-c2cc(NCCCn3cccn3)nc(S(C)(=O)=O)n2)cc1

SMILES: CN(C)CCOc1ccc(-c2nc(-c3ccncc3)c(-c3ccc4c(c3)CC/C4=N\O)[nH]2)cc1
- % of control [11]: 22%

SMILES: N#Cc1cccc(-c2c[nH]c3ncnc(N4CCOCC4)c23)c1
- % of control [12]: 95%

SMILES: O[C@H]1CC[C@H](Nc2ncc3nc(Nc4c(F)cc(F)cc4F)n([C@H]4CCOC4)c3n2)CC1
- % of control [13]: 98%

SMILES: O=C(NOC[C@H](O)CO)c1ccc(F)c(F)c1Nc1ccc(I)cc1F
- % of control [14]: 100%
